Experiments:
[1] = system: HIV-IIIb; test: Test A: Antiviral Assay in MT4 Cells; assay type: cell-based, HIV-1; conditions: Human immunodeficiency virus 1, IIIB, MT4, 120 h
Method: 1 mL Aliquots of MT4 cells were pre-infected for 3 hours at 37° C. with 25 μL of cell growth medium (mock-infected) or a fresh 1:250 dilution of an HIV-IIIb concentrated ABI stock (0.004 m.o.i.). Infected and uninfected cells were diluted in cell growth media and 35 μL (2000 cells) was added to each well of the assay plates.
Assay plates were then maintained in a humidified, 5% CO2 incubator at 37° C. After 5 days of incubation, 25 μL of 2× concentrated CellTiter-Glo™ Reagent (catalog #G7573, Promega Biosciences, Inc., Madison, WI) was added to each well of the assay plate. Cell lysis was carried out by incubating at room temperature for 10 minutes and then chemiluminescence was read using an Envision plate reader (PerkinElmer).

[2] = Atropisomer equilibrium and interconversion in solution; assay type: physicochemical; conditions: rotation along C—C bond between atropisomers
[3] = system: Human Liver Hepatocytes; test: Test D: Metabolic Stability in Cultured Human Liver Hepatocytes; assay type: in vitro ADME; conditions: pooled cryopreserved human hepatocytes, […] radiolabelled compound, 1 million cells/mL, 0-6 hours; calculated from stability data
Method: Test D. Metabolic Stability in Cultured Human Liver Hepatocytes
The final hepatocyte concentration was 1 million cells/mL. The hepatocyte/compound reaction mixture was dissolved in InVitroGRO™ KHB buffer (catalog #Z99074, BioreclamationIVT, Inc., Baltimore, MD) at pH 7.4. The incubations were performed in duplicate. A cell free control and a positive control were included in the incubations. The incubations were carried out with gentle shaking in a 37° C. incubator under a humid atmosphere of 95% air/5% CO2 (v/v). Aliquots (100 mL) were removed after 0, 1, 3, and 6 hours and added to 200 mL quenching solution that comprised 0.1% (v/v) TFA in 5% water/95% acetonitrile (v/v). The samples were placed on a shaker for 10 min, followed by centrifugation at 3000 g for 30 min. The samples of the supernatant were analyzed on a Dionex HPLC/PerkinElmer Flow Scintillation Analyzer as described below.
The column was a Phenomenex Synergi fusion RP (150×4.6 mm, 4 mm) maintained at 32 degrees Celsius. Mobile Phase A consisted of 0.1% (v/v) TFA in 99% water/1% acetonitrile (v/v). Mobile Phase B consisted of 0.1% (v/v) TFA in 5% water/95% acetonitrile (v/v). […]
Metabolic stability was determined by measuring the change in relative abundance of metabolites and parent over time and calculating from it the rate of disappearance of the parent compound. […]

EC50 [1] [nM]	rotational energy barrier [2]	Predicted Human Hepatic Clearance [3] [mL/min/kg]	SMILES
2.99			Cn1nc(NS(C)(=O)=O)c2c(Cl)ccc(-c3ccc(C#CC(C)(C)O)nc3[C@H](Cc3cc(F)cc(F)c3)NC(=O)Cn3nc(C(F)(F)F)c4c3C(F)(F)[C@@H]3C[C@H]43)c21 [Compound B]
	about 24 kcal/mol	0.17	CC(C)(C#Cc1ccc(-c2ccc(Cl)c3c(NS(C)(=O)=O)nn(CC(F)(F)F)c23)c([C@H](Cc2cc(F)cc(F)c2)NC(=O)Cn2nc(C(F)(F)F)c3c2C(F)(F)[C@@H]2C[C@H]32)n1)S(C)(=O)=O [Compound 1, N—((S)-1-(3-(4-Chloro-3-(methylsulfonamido)-1-(2,2,2-trifluoroethyl)-1H-indazol-7-yl)-6-(3-methyl-3-(methylsulfonyl)but-1-yn-1-yl)pyridin-2-yl)-2-(3,5-difluorophenyl)ethyl)-2-((3bS,4aR)-5,5-difluoro-3-(trifluoromethyl)-3b,4,4a,5-tetrahydro-1H-cyclopropa[3,4]cyclopenta[1,2-c]pyrazol-1-yl)acetamide]
